The results in this text go back to publication PMC8607748 (Inorganic chemistry, 2020).

The assay has as its system HL-60 cell line. The assay is classed as cell-based. Particulars: free ligand.

As to `c1cnccn1` [pyrazine], the “activity of the ejected monodentate ligand (cell killing)” value was “inactive”.
As for `c1ccncc1` [pyridine], the entry is “inactive”.
